Substitutions are numbered along the chain they refer to. Where two headings read alike, the source gives them in different places.
Legend:
[1] = test system: HLA-DR and HLA-DP molecules; experiment: MHC class II binding assays, panel of twelve HLA class II molecules (number of alleles bound); conditions: number of the twelve class II MHC alleles bound; title: Threshold 600 nM/5 alleles
[2] = target: T1, DP401=HLA-DP(α1*0101,α1*0401) (Homo sapiens, UniProt P04440+P20036); experiment: biochemical; assay type: binding
T1 sequence (P20036 32-260 limits assumed): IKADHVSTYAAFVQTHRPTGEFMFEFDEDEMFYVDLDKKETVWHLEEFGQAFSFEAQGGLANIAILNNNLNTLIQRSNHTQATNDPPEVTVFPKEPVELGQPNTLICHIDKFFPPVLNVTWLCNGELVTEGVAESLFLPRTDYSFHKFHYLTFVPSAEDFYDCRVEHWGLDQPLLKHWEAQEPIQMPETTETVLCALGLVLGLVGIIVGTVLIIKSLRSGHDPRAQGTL
T1 sequence (P04440 30-258): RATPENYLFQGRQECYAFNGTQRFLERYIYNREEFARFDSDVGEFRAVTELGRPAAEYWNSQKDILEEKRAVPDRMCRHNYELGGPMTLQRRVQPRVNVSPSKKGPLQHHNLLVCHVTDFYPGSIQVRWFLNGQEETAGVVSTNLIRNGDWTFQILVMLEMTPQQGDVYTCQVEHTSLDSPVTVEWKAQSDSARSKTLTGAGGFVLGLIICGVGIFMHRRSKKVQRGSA

[3] = target: T2, DRB3=HLA-DR(α1*0101,α3*0101) (Homo sapiens, UniProt P01903+P79483); experiment: HLA-DR specific binding assay, DRB3 (DR52)
T2 construct: endogenous in cells; host or cells: STEILIN or 0206AD (both typed DRB3*0101)

[4] = target: T3, DR3=HLA-DR(α1*0101,α1*0301) (Homo sapiens, UniProt P01903+P01911, A100K/A102G/A103R/A169T/F55Y/I96L/K41T/L162R/M171V/P40S/Q125H/Q178H/Q39Y/R42S/S66N/T106N/T262R/W38E/Y61H); experiment: HLA-DR specific binding assay, DR3
T3 construct: endogenous in cells; host or cells: STEILIN (EBV homozygous B cell line)

[5] = target: T4, DR13=HLA-DR(α1*0101,α1*1301) (Homo sapiens, UniProt P01903+P01911, A100E/A169T/K41T/L162R/M171V/P40S/Q125H/Q178H/Q39Y/Q99D/R42S/S66N/T262R/W38E/Y61H); experiment: HLA-DR specific binding assay, DR13
T4 construct: endogenous in cells; host or cells: 0206AD (EBV homozygous B cell line)

[6] = target: T5, DR15=HLA-DR(α1*0101,α1*1501) (Homo sapiens, UniProt P01903+P01911); experiment: HLA-DR specific binding assay, DR15
T5 construct: endogenous in cells; host or cells: EBV homozygous human B cell line

[7] = target: T6, DRB4=HLA-DR(α1*0101,α4*0101) (Homo sapiens, UniProt P01903+P13762, G164S); experiment: HLA-DR specific binding assay, DRB4 (DR53)
T6 construct: endogenous in cells

[8] = target: T7, DP402 DP (α1*0101, α1*0402) (Homo sapiens, UniProt P04440+P20036, A65V/A84D/A85E/L207M); experiment: biochemical; assay type: binding
T7 sequence (P20036 29-260): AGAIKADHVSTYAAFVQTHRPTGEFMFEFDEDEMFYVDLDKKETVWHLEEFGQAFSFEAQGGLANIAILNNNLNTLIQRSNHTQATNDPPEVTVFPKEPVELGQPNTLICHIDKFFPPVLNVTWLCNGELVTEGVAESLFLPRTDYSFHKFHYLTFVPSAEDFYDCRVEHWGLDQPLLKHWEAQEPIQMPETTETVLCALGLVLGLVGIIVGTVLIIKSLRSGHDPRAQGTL
T7 sequence (P04440 30-258 A65V/A84D/A85E): T1 sequence (P04440 30-258) with A36V, A55D, A56E

[9] = target: T8, DR1=HLA-DR(α1*0101,α1*0101) (Homo sapiens, UniProt P01903+P01911, A100R/D57E/F55L/F60I/F76Y/I96L/L162R/M171V/P40L/Q125E/R42F/V115G/Y59C); experiment: biochemical; assay type: binding
T8 construct: endogenous in cells; host or cells: EBV homozygous human B cell line

[10] = target: T9, DR4=HLA-DR(α1*0101,α1*0401) (Homo sapiens, UniProt P01903+P01911, A100K/A169T/F76Y/I96L/K127E/L162R/M171V/N62H/P40V/Q125Y/R42H/S133A/S149N/S66Y/V115G/V209L/W38E); experiment: biochemical; assay type: binding
T9 construct: endogenous in cells; host or cells: BOLETH (EBV homozygous B cell line)

[11] = target: T10, DR7=HLA-DR(α1*0101,α1*0701) (Homo sapiens, UniProt P01903+P01911, A100R/A102G/A103Q/D57E/D86V/E43K/F76Y/K127E/L162R/M171V/P40G/Q125H/Q99D/R33Q/R42Y/R54Q/S133A/S66F/T210M/V115G/Y107V/Y59L/Y89S); experiment: HLA-DR specific binding assay, DR7
T10 construct: endogenous in cells; host or cells: EBV homozygous human B cell line

[12] = target: T11, DR11=HLA-DR(α1*0101,α1*1101) (Homo sapiens, UniProt P01903+P01911, A100R/A169T/A87E/I96F/K41T/L162R/M171V/P40S/Q125H/Q178H/Q39Y/Q99D/R42S/S66Y/T262R/V115G/W38E); experiment: biochemical; assay type: binding
T11 construct: endogenous in cells; host or cells: SWEIG (EBV homozygous B cell line)

[13] = target: T12, DRB5=HLA-DR(α1*0101,α5*0101) (Homo sapiens, UniProt P01903+Q30154); experiment: biochemical; assay type: binding; conditions: Table V; […]; read-out: IC50 DRB5
T12 construct: endogenous in cells; host or cells: EBV homozygous human B cell line

[14] = Table V, […], read-out: IC50 DR1
[15] = Table V, […], read-out: IC50 DR4
[16] = Table V, […], read-out: IC50 DR11

T2 sequence (P79483 30-266, other chains not shown): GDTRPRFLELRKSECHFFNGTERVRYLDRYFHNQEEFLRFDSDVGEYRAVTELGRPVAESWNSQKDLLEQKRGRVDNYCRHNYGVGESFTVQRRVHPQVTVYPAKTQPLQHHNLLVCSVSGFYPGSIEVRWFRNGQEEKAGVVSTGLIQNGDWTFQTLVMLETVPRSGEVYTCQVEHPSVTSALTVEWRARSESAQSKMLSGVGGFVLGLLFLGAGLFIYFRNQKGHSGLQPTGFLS
T12 sequence (Q30154 30-266, other chains not shown): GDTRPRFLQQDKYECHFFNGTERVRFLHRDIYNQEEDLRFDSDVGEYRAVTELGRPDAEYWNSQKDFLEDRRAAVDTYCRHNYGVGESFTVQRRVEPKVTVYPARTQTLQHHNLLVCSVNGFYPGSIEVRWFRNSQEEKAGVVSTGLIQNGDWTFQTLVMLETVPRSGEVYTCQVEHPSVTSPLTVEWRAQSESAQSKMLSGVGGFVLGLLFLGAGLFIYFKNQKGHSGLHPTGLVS

Row | Compound | Range [1] | IC50 ([2]; Table V, […]) [nM] | IC50 ([3]; IC50 DRB3, Table V, […]) [nM] | IC50 ([4]; IC50 DR3, Table V, […]) [nM] | IC50 [5] [nM] | IC50 [6] [nM] | IC50 [7] [nM] | IC50 ([8]; Class II MHC allele DP402) [nM] | IC50 ([8]; Table V, […]) [nM] | IC50 [9, 14] [nM] | IC50 [10, 15] [nM] | IC50 [11] [nM] | IC50 [12, 16] [nM] | IC50 [13] [nM] | also measured
1 | CC[C@H](C)[C@H](N)C(=O)N[C@H](C(=O)N[C@@H](CCC(N)=O)C(=O)N[C@@H](Cc1ccccc1)C(=O)N[C@H](C(=O)N[C@@H](CC(C)C)C(=O)N[C@@H](CCC(=O)O)C(=O)N[C@@H](Cc1c[nH]cn1)C(=O)N[C@@H](CCCNC(=N)N)C(=O)N[C@@H](C)C(=O)N[C@@H](CCCCN)C(=O)NCC(=O)N[C@@H](CO)C(=O)N[C@@H](CS)C(=O)N[C@@H](CCCCN)C(=O)N[C@@H](Cc1ccc(O)cc1)C(=O)N[C@@H](C)C(=O)N[C@@H](CC(C)C)C(=O)N1CCC[C@H]1C(=O)N[C@@H](CC(C)C)C(=O)N[C@@H](CCCNC(=N)N)C(=O)N[C@H](C(=O)N1CCC[C@H]1C(=O)N1CCC[C@H]1C(=O)N[C@@H](CO)C(=O)N[C@@H](C)C(=O)N[C@@H](CS)C(=O)N[C@@H](CC(C)C)C(=O)N[C@@H](CO)C(=O)N1CCC[C@H]1C(=O)N[C@@H](CCC(N)=O)C(=O)O)[C@@H](C)CC)[C@@H](C)CC)[C@@H](C)O [HSV 38] | 8 |  |  |  |  |  |  |  |  |  |  |  |  |  | 
2 | CC[C@H](C)[C@H](NC(=O)[C@H](CCCCN)NC(=O)[C@H](CC(C)C)NC(=O)[C@H](CO)NC(=O)[C@H](Cc1ccc(O)cc1)NC(=O)[C@@H](NC(=O)[C@H](C)NC(=O)[C@@H](NC(=O)[C@@H](NC(=O)[C@H](CCCNC(=N)N)NC(=O)[C@@H](N)CCC(N)=O)[C@@H](C)O)C(C)C)C(C)C)C(=O)N[C@@H](C)C(=O)NCC(=O)N[C@@H](Cc1c[nH]c2ccccc12)C(=O)N[C@@H](Cc1c[nH]cn1)C(=O)NCC(=O)N1CCC[C@H]1C(=O)N[C@@H](CCCCN)C(=O)N[C@@H](C)C(=O)N1CCC[C@H]1C(=O)N[C@@H](Cc1ccc(O)cc1)C(=O)N[C@H](C(=O)N[C@@H](CO)C(=O)N[C@H](C(=O)N[C@@H](CC(C)C)C(=O)N[C@@H](CC(C)C)C(=O)N1CCC[C@H]1C(=O)N1CCC[C@H]1C(=O)N[C@@H](CCC(=O)O)C(=O)N[C@@H](CC(C)C)C(=O)O)[C@@H](C)O)[C@@H](C)O [HSV 40] | 4 | 1360 | > 100000 | 2390 | 1590 | 2 | 1160 | 7210 | 7210 | 1160 | 9920 | 20 | 39 |  | IC50 ([2]; Class II MHC allele DP401): 1360 nM; IC50 ([3]; IC50, DRD3, Class II MHC allele DRD3 (so in the source)): > 100000 nM; IC50 ([4]; IC50, DR3, Class II MHC allele DR3): 2390 nM; IC50 ([9]; […], Class II MHC allele DR1, read-out: IC50, DR1): 1160 nM; IC50 ([10]; Class II MHC allele DR4, read-out: IC50, DR4): 9920 nM; IC50 ([12]; Class II MHC allele DR11, read-out: IC50, DR11): 39 nM
3 | CC[C@H](C)[C@H](NC(=O)[C@H](CCCCN)NC(=O)[C@@H](NC(=O)[C@H](CC(C)C)NC(=O)[C@H](CCCNC(=N)N)NC(=O)[C@H](CC(C)C)NC(=O)[C@H](Cc1ccc(O)cc1)NC(=O)[C@@H](NC(=O)CNC(=O)[C@H](C)NC(=O)[C@@H](NC(=O)[C@H](CCC(=O)O)NC(=O)[C@H](Cc1ccccc1)NC(=O)[C@H](C)NC(=O)[C@@H]1CCCN1C(=O)[C@H](C)NC(=O)[C@H](Cc1c[nH]cn1)NC(=O)[C@H](CCSC)NC(=O)[C@H](CC(C)C)NC(=O)[C@H](Cc1ccccc1)NC(=O)CNC(=O)[C@H](CC(C)C)NC(=O)[C@H](CC(N)=O)NC(=O)[C@H](CC(=O)O)NC(=O)[C@@H](N)CCC(=O)O)[C@@H](C)O)[C@@H](C)O)C(C)C)C(=O)N[C@@H](CC(N)=O)C(=O)N[C@@H](CC(=O)O)C(=O)N[C@@H](Cc1c[nH]c2ccccc12)C(=O)N[C@H](C(=O)N[C@@H](CCC(=O)O)C(=O)N[C@H](C(=O)N[C@H](C(=O)N[C@@H](CCC(N)=O)C(=O)N[C@@H](Cc1ccccc1)C(=O)O)[C@@H](C)O)[C@@H](C)CC)[C@@H](C)O [HSV 34] |  | 115 | 2020 | 10200 | > 100000 | 35 | 743 |  | 164 |  | 632 | 316 | 175 | 85 | IC50 ([9]; IC50 DR1): 40 nM
4 | CSCC[C@H](NC(=O)[C@H](CC(=O)O)NC(=O)[C@@H](NC(=O)[C@@H](NC(=O)[C@H](CCCCN)NC(=O)[C@H](C)NC(=O)[C@H](CO)NC(=O)[C@H](CC(C)C)NC(=O)[C@H](CC(C)C)NC(=O)[C@H](C)NC(=O)[C@H](CO)NC(=O)[C@@H](NC(=O)CN)[C@@H](C)O)C(C)C)[C@@H](C)O)C(=O)N[C@H](C(=O)N[C@@H](CCSC)C(=O)N[C@@H](CCCNC(=N)N)C(=O)N[C@@H](CCCCN)C(=O)N[C@@H](CCCNC(=N)N)C(=O)N[C@@H](CCCNC(=N)N)C(=O)N[C@@H](CC(N)=O)C(=O)N[C@H](C(=O)N[C@@H](CC(N)=O)C(=O)N[C@@H](Cc1ccc(O)cc1)C(=O)N[C@H](C(=O)N[C@@H](CCC(N)=O)C(=O)N[C@H](C(=O)N1CCC[C@H]1C(=O)N[C@@H](CC(N)=O)C(=O)N[C@@H](CCCCN)C(=O)N[C@@H](CC(=O)O)C(=O)NCC(=O)N[C@@H](CC(=O)O)C(=O)N[C@@H](C)C(=O)N[C@@H](CC(=O)O)C(=O)O)C(C)C)[C@@H](C)O)[C@@H](C)O)C(C)C [HSV 9] |  | 8000 | 58000 | 11400 | 362 | 2430 | 16000 | 4000 | 4000 | 493 | 4000 | 229 | 424 | 559 | 

Reference: patent US20080299140A1, “Immunogenic Composition and Peptide Sequences for Prevention and Treatment of an Hsv Condition” (priority 2002, published 2008)
